Experimental findings from ChEMBL document CHEMBL3046357, “Inhibitors of biotin biosynthesis as potential herbicides” (2004) are described below.

A value given as a limit tells only on which side of the number the result lay.

The test relates to Arabidopsis thaliana. Description: Herbicidal activity against Arabidopsis thaliana after 3 weeks. Type of test: functional.
In turn, `COC(=O)CCCCCC(=O)C(N)CS.Cl` (stereo not given) displayed a GR50 of 120 ppm. Compound `Cl.NC(CO)C(=O)CCCCCC(=O)O` (stereo not given) returned a GR50 of 100 ppm. As for `COC(=O)CCCCCC(=O)C(N)CO.Cl` (stereo not given), the GR50 was determined as 53 ppm. The result for `CC(O)C(N)C(=O)CCCCCC(=O)O.Cl` (stereo not given) reads 250 ppm; that for `COC(=O)CCCCCC(=O)C(N)C(C)O.Cl` (stereo not given), 100 ppm. Take `COC(=O)CCCCC/C(CN)=N\O.Cl`: the GR50 is 53 ppm. As to `Cl.NC/C(CCCCCC(=O)O)=N/O`, the GR50 is recorded as 40 ppm. On to `CCC(N)/C(CCCCCC(=O)O)=N/O.Cl` (stereo not given), for which the GR50 was over 780 ppm. To `CC(C)C(N)/C(CCCCCC(=O)O)=N/O.Cl` (stereo not given) belongs over 780 ppm; to `Cl.Cl.NCC(N)CCCCCC(=O)O` (stereo not given), 53 ppm; to `CCC(N)C(N)CCCCCC(=O)O.Cl.Cl` (stereo not given), 76 ppm. To `CSCCC(N)C(N)CCCCCC(=O)O.Cl.Cl` (stereo not given) belongs 0.78 ppm; to `CCC1NC(=O)NC1CCCCCC(=O)O` (stereo not given), 35 ppm; to `CSCCC1NC(=O)NC1CCCCCC(=O)O` (stereo not given), over 780 ppm.

`CSCC1NC(=O)NC1CCCCCC(=O)O` (stereo not given) gave a GR50 of 46 ppm. To `COC(=O)CCCCCC1NC(=S)NC1CCSC` (stereo not given) belongs over 780 ppm. The result for `COC(=O)CCCCCC1NC(=S)NC1CSC` (stereo not given) reads 44 ppm; that for `Cl.NCC(=O)CCCCCC(=O)O`, 8 ppm; that for `CCC(N)C(=O)CCCCCC(=O)O.Cl` (stereo not given), 43 ppm.

`CC(C)C(N)C(=O)CCCCCC(=O)O.Cl` (stereo not given): the GR50 was determined as 37 ppm. The result for `CSCCC(N)C(=O)CCCCCC(=O)O.Cl` (stereo not given) reads over 780 ppm; that for `CSCC(N)C(=O)CCCCCC(=O)O.Cl` (stereo not given), over 780 ppm; that for `COC(=O)CCCCCC(=O)C(N)CSC.Cl` (stereo not given), 250 ppm. To `Cl.NC(CS)C(=O)CCCCCC(=O)O` (stereo not given) belongs over 780 ppm; to `O=C(O)CCCCCC1CNC(=O)N1` (racemic), 35 ppm.
